Laboratory results published in article PMC5495814, “The impact of the butterfly effect on human parainfluenza virus haemagglutinin-neuraminidase inhibitor design” (Scientific Reports, 2017).
Values joined by “and” are separate entries in the source; they are usually repeats but may differ in a detail not shown here. Equal entries are not always repeated. Where two headings read alike, the source gives them in different places.

Tests used:
soluble hPIV-3 HN = target: soluble hPIV-3 HN; set-up: method as in PMID 23740997; conditions: in complex with soluble hPIV-3 HN; cited from earlier work
[1] = target: T1, human neuraminidase 2 (hNeu2) (Homo sapiens, UniProt Q9Y3R4); test: NI assay with recombinant human neuraminidase 2; format: biochemical; conditions: inhibitors tested 0.001 μM to 1000 μM, 0.5 mM MUN, pH 5.5
T1 construct: GST (own knowledge: pGEX-2T encodes an N-terminal GST with a thrombin site); made in house; host or cells: E. coli
T1 sequence (Q9Y3R4 whole entry): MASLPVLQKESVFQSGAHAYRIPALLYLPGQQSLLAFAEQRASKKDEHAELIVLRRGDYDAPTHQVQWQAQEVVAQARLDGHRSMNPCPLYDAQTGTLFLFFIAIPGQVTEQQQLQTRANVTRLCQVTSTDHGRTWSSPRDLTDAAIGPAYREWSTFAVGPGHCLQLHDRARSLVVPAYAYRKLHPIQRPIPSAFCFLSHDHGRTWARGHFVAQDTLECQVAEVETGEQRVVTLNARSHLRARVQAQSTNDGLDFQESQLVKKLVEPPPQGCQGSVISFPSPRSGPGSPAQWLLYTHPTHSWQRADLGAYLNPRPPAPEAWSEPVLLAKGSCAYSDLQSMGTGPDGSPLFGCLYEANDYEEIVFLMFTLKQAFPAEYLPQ
Procedure: Finally, all inhibitors were assessed for cytotoxicity to human A549 cells with no toxicity observed at a concentration of 300 µM (data not shown). In addition, we investigated[9] the capacity of the synthesized inhibitors 5–8 to inhibit human neuraminidase 2 (hNeu2) compared with the well-described neuraminidase inhibitor Neu5Ac2en (2)[28].
The NI assay with human Neuraminidase 2 (hNeu2) was performed as previously described, using 60 ng of purified hNeu2 enzyme in reaction buffer/hNeu2 (NaOAc 50 mM, pH 5.5), supplemented with 10 μg BSA and 0.5 mM MUN per reaction. All inhibitors were tested in duplicate in the concentration range from 0.001 μM to 1000 μM. After 10 min of incubation with agitation (1000 rpm) at 37 °C, the enzymatic reaction was stopped with glycine buffer (glycine 0.25 M, pH 10.4) and the product fluorescence was measured in relative fluorescence units (RFU) using a Victor 3 multilabel reader (PerkinElmer, Waltham, MA). Controls were conducted with MUN and purified hNeu2, the enzymatic reaction was stopped at t = 0 for the negative control and at t = 10 min for the positive control.
The obtained data were normalised by background (negative control RFU) subtraction and processed data were analyzed with GraphPadPrism 4 (GraphPad Software Inc., La Jolla, CA) to calculate IC50 values. The concentration of inhibitor that reduced the neuraminidase activity by 50% compared to those of a non-treated virus/protein suspension was considered as the NI IC50 value.

[2] = target: hPIV-3 HN haemagglutinin function (Human parainfluenza 3 virus, UniProt P08492); test: cell-based; set-up: species or system human parainfluenza virus type 3 (hPIV-3); conditions: HI IC50, human red blood cells, 4 °C, 90 min
hPIV-3 HN haemagglutinin function, sequence (P08492 whole entry): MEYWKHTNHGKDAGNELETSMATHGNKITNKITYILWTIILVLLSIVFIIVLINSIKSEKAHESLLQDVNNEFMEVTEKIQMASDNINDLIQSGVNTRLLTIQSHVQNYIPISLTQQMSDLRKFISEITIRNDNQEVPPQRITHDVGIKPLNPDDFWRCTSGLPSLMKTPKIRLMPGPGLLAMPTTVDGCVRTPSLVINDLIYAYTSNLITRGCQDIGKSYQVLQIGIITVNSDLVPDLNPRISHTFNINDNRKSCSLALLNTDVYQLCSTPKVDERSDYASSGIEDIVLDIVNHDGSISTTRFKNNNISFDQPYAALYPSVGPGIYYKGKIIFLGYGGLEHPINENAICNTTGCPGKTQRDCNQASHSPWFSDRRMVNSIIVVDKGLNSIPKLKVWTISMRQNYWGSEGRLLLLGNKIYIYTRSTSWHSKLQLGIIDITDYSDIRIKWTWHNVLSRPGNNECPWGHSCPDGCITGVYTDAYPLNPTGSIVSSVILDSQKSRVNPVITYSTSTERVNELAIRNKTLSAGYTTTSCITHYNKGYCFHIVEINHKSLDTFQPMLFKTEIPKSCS
Procedure: The HN inhibitors were assessed in haemagglutination inhibition assays using human red blood cells (RBC) as previously described[10] with minor modifications. The lowest final concentration of hPIV-3 that leads to a complete agglutination of human-RBC at 4 °C is considered as 1 HAU. 4 haemagglutination units (HAU) of hPIV-3 (final 1 HAU per well) were pre-mixed with inhibitors of each tested concentration (4X dilution in PBS) on ice. Next, an equivalent volume of ice-cold 1% human-RBC in PBS was added to each well of the inhibitor/virus pre-mixture and the plate was then incubated for 90 min at 4 °C before determining the extent of haemagglutination inhibition.

[3] = target: hPIV-3 HN neuraminidase function (Human parainfluenza 3 virus, UniProt P08492); test: biochemical; set-up: species or system human parainfluenza virus type 3 (hPIV-3, strain C-243); conditions: for IC50: NI IC50, purified hPIV-3, MUN substrate, pH 4.6, means of 3 independent experiments
hPIV-3 HN neuraminidase function, sequence (P08492 whole entry): as above

hPIV-3 = test: Virus growth inhibition by in situ ELISA in A549 cells
[4] = Human respirovirus 3, A549, in Homo sapiens, read-out: Virus growth inhibition IC50, in situ ELISA, human cell line A549, 36–40 h
[5] = read-out: Virus growth inhibition IC50, in situ ELISA, human cell line A549, 36–40 h

| Molecule | Kd (soluble hPIV-3 HN) [µM] | Inhibition of hNeu2 [1] | IC50 [2] | IC50 [3] | IC50 (hPIV-3; [4]) [µM] | IC50 (hPIV-3; [5]) [µM] | increase in potency (NI) compared to Neu2en analogue 6 ([3]; NI IC50 of 8 versus 6) [fold] |
| --- | --- | --- | --- | --- | --- | --- | --- |
| Neu5Acα2–3 Galβ1–4GlcNAcβ1–3 Galβ1–4GlcNAc [3′SiaDiLN] | 4300 | – | – | – | – | – | – |
| COCc1cn([C@H]2C=C(C(=O)O)O[C@@H]([C@H](O)[C@H](O)CO)[C@@H]2NC(=O)C(C)C)nn1 [Inhibitor 6, reference compound] | – | No inhibition | 3.88 µM and 3.9 µM | 14.5 µM | 82.4 ± 7.7 | 82.4 | – |
| COCc1cn([C@@H]2[C@@H](NC(=O)C(C)C)[C@H]([C@H](O)[C@H](O)CO)O[C@@](F)(C(=O)O)[C@H]2F)nn1 [Inhibitor 8] | – | No inhibition | 57 µM | 6.7 µM and 6.75 µM | 14.3 ± 0.3 | 14.3 | 2 |
| CC(C)C(=O)N[C@H]1[C@H]([C@H](O)[C@H](O)CO)O[C@@](F)(C(=O)O)[C@@H](F)[C@@H]1n1cc(-c2ccccc2)nn1 [Inhibitor 7] | – | No inhibition | 775 µM | 55.3 µM | 40.1 ± 7 | 40.1 | – |
| CC(C)C(=O)N[C@H]1[C@H]([C@H](O)[C@H](O)CO)OC(C(=O)O)=C[C@@H]1n1cc(-c2ccccc2)nn1 [Inhibitor 5, reference compound] | – | No inhibition | – | – | 11.2 ± 0.9 | 11.2 | – |
